Experiments:
rSsoPK4(284–635) [1] = assay: Protein kinase activity assay (filter paper method, [γ-32P]ATP, 65 °C) of rSsoPK4(284–635); type: biochemical, Sulfolobus solfataricus; conditions: for Vmax in the presence of CoAS-SCoA: CoAS-SCoA 1 mM
Protocol: (§1) Protein kinase activity was routinely assayed by the filter paper method of Corbin and Reimann as modified by Lower and Kennelly. The final volume of the assays was typically 50 μL. The quantity of rSsoPK4 assayed ranged from 0.1 to 5.0 µg. Both MgCl2 and MnCl2 were included at a final concentration of 5 mM each. The final concentration of [γ-^32P]ATP was 100 μM. The specific activity of the [γ-^32P]ATP generally ranged from 2 to 5 × 10^15 cpm/mol. Phosphoacceptor proteins were generally present at a concentration of 0.5–1.0 µg/µL. The assay mixture was typically incubated for a period of 30 min to one hour at 65 °C in 50 mM MOPS pH 7.0. On occasion, the proteins within the assay mixture were resolved by SDS-PAGE in order to identify the specific polypeptides that were phosphorylated. Radiolabeled species were visualized using an Instant Imager from Packard (Downers Grove, IL, USA).

[2] = tested on: rSsoPK4(284–635) T592D/T606D/S611D; assay: Protein kinase activity assay of rSsoPK4(284–635) T592D/T606D/S611D; type: biochemical, Sulfolobus solfataricus; conditions: MBP as substrate (Figure 9)
Protocol: Figure 9 CoAS-SCoA activates rSsoPK4(284–635), but not rSsoPK4(284–635) T592D/T606D/S611D, in a concentration-dependent manner. The activity of rSsoPK4(284–635) (OPEN […]) and rSsoPK4(284–635) T592D/T606D/S611D (OPEN CIRCLES) were assayed, in duplicate, in the presence of the indicated concentrations of CoAS-SCoA using MBP as substrate. Shown is a plot of the activity relative to that measured in the absence of CoAS-SCoA, which was normalized as 1.0, plus or minus mean average deviation.

[3] = tested on: rSsoPK4(284–635)T606D/S611D; assay: Protein kinase activity assay of rSsoPK4(284–635)T606D/S611D; type: biochemical, Sulfolobus solfataricus
rSsoPK4(284–635) [4] = molecular target: T1, rSsoPK4(284–635) (Saccharolobus solfataricus, UniProt Q97U41); assay: Filter paper [γ-32P]ATP kinase assay with MBP as phosphoacceptor, ATP routinely 100 µM, 5 mM MgCl2 and 5 mM MnCl2, 50 mM MOPS pH 7.0, 65 °C, in the presence of nucleotide effectors.; type: biochemical
T1 construct: gene SSO3182; residues 284–635 (catalytic and part of central helical repeat domain), N-terminal S-tag, C-terminal 33-residue fusion domain with polyhistidine motif, pET-29b, expressed in E. coli
T1 sequence (Q97U41 284-635): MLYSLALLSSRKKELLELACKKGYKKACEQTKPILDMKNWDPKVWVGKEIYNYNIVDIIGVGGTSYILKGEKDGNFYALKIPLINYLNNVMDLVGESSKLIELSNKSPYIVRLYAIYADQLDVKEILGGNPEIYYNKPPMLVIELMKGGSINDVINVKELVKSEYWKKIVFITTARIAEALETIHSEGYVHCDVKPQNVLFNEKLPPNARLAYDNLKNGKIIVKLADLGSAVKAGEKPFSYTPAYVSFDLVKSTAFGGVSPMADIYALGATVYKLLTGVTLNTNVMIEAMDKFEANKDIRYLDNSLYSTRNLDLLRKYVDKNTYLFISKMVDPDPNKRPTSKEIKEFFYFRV
Protocol: as §1

[5] = substrate: Nc1ncnc2c1ncn2[C@@H]1O[C@H](COP(=O)(O)OP(=O)(O)OP(=O)(O)O)[C@@H](O)[C@H]1O; assay: Filter paper [32P]phosphate incorporation kinase assay with varied [γ-32P]ATP and mixed histones fixed at 70 µM as phosphoacceptor, 5 mM MgCl2 and 5 mM MnCl2, 50 mM MOPS pH 7.0, 65 °C; Lineweaver-Burk plot.; type: biochemical
Protocol: Protein kinase activity was routinely assayed by the filter paper method of Corbin and Reimann [18] as modified by Lower and Kennelly [19]. The final volume of the assays was typically 50 μL. The quantity of rSsoPK4 assayed ranged from 0.1 to 5.0 µg. Both MgCl2 and MnCl2 were included at a final concentration of 5 mM each. The final concentration of [γ-^32P]ATP was 100 μM. The specific activity of the [γ-^32P]ATP generally ranged from 2 to 5 × 10^15 cpm/mol. Phosphoacceptor proteins were generally present at a concentration of 0.5–1.0 µg/µL. The assay mixture was typically incubated for a period of 30 min to one hour at 65 °C in 50 mM MOPS pH 7.0. On occasion, the proteins within the assay mixture were resolved by SDS-PAGE in order to identify the specific polypeptides that were phosphorylated. Radiolabeled species were visualized using an Instant Imager from Packard (Downers Grove, IL, USA).

`CC(C)(COP(=O)(O)OP(=O)(O)OC[C@H]1O[C@@H](n2cnc3c(N)ncnc32)C(O)[C@H]1OP(=O)(O)O)[C@@H](O)C(=O)NCCC(=O)NCCSSCCNC(=O)CCNC(=O)[C@H](O)C(C)(C)COP(=O)(O)OP(=O)(O)OC[C@H]1O[C@@H](n2cnc3c(N)ncnc32)C(O)[C@H]1OP(=O)(O)O` (some centres unmarked) [CoAS-SCoA, oxidized Coenzyme A] was tested, and the “Vmax in the presence of CoAS-SCoA” value (rSsoPK4(284–635) [1]; protein substrate MBP (3.7 without)) was 4.8 nmol/min/mg, the “Vmax in the presence of CoAS-SCoA” value (rSsoPK4(284–635) [1]; protein substrate aIF2α (4.2 without)) was 2.9 nmol/min/mg and the “effect on protein kinase activity toward MBP” value (rSsoPK4(284–635) [1]; MBP substrate, compounds at 1 mM (Figure 8)) was “stimulate protein kinase activity toward MBP several-fold”. For the same molecule, the “shift (lowering) of Km for aIF2α by oxidized CoA” value (rSsoPK4(284–635) [1]; from ~48 µM in absence to ~6 µM in presence of oxidized CoA) was ~ 8 fold, the “sensitivity of activity to oxidized CoA” value [2] was “no longer sensitive” and the “sensitivity of activity to oxidized CoA” value [3] was “no longer sensitive”.

Work on `Nc1ncnc2c1ncn2[C@@H]1O[C@H](CO)[C@H]2OP(=O)(O)O[C@H]21` [2ʹ,3ʹ-cAMP, 2ʹ,3ʹ-cyclic AMP] yielded an IC50 (rSsoPK4(284–635) [4]) of 1550 µM.

B1: rSsoPK4(284–635) (Saccharolobus solfataricus P2) (protein)
chain: MLYSLALLSSRKKELLELACKKGYKKACEQTKPILDMKNWDPKVWVGKEIYNYNIVDIIGVGGTSYILKGEKDGNFYALKIPLINYLNNVMDLVGESSKLIELSNKSPYIVRLYAIYADQLDVKEILGGNPEIYYNKPPMLVIELMKGGSINDVINVKELVKSEYWKKIVFITTARIAEALETIHSEGYVHCDVKPQNVLFNEKLPPNARLAYDNLKNGKIIVKLADLGSAVKAGEKPFSYTPAYVSFDLVKSTAFGGVSPMADIYALGATVYKLLTGVTLNTNVMIEAMDKFEANKDIRYLDNSLYSTRNLDLLRKYVDKNTYLFISKMVDPDPNKRPTSKEIKEFFYFRV
notes: residues 284–635 (catalytic and part of central helical repeat domain), N-terminal S-tag, C-terminal 33-residue fusion domain with polyhistidine motif, pET-29b, expressed in E. coli
Work on B1 yielded a Km [5] of 100 µM.

From paper PMC5217372, “Activation of SsoPK4, an Archaeal eIF2α Kinase Homolog, by Oxidized CoA” (Proteomes, 2015)
